Measured values from paper PMC10507085, “Pharmacological inhibition of TBK1/IKKε blunts immunopathology in a murine model of SARS-CoV-2 infection” (Nature Communications, 2023).

What was measured:
Assay in all cases: biochemical
Parameters in all cases: KINOMEscan competition binding, DNA-tagged kinase against immobilised ligand, qPCR read-out
Settings in all cases: read-out: Percent Control
AAK1 = AAK1 (Homo sapiens, UniProt Q2M2I8)
AURKB = AURKB (Homo sapiens, UniProt Q96GD4)
BMPR2 = BMPR2 (Homo sapiens, UniProt Q13873)
Sequence of BMPR2 (Q13873 whole entry): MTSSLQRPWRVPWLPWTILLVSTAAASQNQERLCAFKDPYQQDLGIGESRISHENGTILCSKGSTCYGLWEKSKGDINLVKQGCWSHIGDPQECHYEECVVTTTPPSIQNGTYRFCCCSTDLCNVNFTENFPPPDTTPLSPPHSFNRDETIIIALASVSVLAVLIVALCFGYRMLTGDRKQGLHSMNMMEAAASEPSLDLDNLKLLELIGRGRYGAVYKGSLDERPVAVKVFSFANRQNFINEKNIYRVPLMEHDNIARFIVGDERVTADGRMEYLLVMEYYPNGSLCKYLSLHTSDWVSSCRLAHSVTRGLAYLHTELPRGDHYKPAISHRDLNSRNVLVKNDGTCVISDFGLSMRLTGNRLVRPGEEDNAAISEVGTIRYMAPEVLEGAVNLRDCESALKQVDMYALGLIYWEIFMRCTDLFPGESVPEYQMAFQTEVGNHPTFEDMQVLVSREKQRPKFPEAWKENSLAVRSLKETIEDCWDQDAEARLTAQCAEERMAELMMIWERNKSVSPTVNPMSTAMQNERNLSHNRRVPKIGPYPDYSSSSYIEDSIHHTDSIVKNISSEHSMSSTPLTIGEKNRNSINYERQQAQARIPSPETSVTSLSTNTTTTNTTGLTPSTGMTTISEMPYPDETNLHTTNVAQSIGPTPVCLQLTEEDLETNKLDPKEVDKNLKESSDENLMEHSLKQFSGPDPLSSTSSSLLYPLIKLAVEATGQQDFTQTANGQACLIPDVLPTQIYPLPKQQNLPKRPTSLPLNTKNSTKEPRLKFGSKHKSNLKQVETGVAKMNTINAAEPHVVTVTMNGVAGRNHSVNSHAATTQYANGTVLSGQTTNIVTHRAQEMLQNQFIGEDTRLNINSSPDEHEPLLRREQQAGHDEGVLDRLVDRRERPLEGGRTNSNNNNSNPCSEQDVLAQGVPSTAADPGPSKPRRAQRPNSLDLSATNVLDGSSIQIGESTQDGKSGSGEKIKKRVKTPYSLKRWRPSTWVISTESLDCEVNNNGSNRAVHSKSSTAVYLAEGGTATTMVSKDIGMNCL

CAMK1 = CAMK1 (Homo sapiens, UniProt Q14012)
Sequence of CAMK1 (Q14012 whole entry): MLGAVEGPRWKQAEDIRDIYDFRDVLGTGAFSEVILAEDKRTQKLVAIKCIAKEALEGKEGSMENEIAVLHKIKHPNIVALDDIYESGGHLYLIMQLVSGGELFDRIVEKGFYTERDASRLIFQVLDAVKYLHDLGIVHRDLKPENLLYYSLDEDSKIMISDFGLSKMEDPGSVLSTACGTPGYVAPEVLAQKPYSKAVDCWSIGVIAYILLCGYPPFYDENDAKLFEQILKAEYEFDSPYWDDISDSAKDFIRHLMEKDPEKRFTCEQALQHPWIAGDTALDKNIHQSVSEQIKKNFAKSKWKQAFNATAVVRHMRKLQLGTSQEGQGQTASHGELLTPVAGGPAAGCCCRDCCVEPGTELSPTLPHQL

CHUK = CHUK (Homo sapiens, UniProt O15111)
CLK1 = CLK1 (Homo sapiens, UniProt P49759)
Sequence of CLK1 (P49759 whole entry): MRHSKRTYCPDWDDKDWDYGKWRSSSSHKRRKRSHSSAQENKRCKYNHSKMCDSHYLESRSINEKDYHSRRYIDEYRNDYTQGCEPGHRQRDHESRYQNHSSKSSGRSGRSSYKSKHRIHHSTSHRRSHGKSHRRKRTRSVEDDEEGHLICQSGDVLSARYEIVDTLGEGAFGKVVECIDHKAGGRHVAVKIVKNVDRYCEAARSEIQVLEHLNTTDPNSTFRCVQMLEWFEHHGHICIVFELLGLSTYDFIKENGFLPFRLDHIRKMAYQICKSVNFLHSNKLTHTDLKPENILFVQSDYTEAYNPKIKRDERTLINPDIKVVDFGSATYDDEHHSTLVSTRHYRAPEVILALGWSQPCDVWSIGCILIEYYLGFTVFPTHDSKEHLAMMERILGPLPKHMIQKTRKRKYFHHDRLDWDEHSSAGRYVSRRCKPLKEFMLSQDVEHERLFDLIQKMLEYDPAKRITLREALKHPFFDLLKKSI

ERN1 = ERN1 (Homo sapiens, UniProt O75460)
FER = FER (Homo sapiens, UniProt P16591)
INSRR = INSRR (Homo sapiens, UniProt P14616)
Sequence of INSRR (P14616 whole entry): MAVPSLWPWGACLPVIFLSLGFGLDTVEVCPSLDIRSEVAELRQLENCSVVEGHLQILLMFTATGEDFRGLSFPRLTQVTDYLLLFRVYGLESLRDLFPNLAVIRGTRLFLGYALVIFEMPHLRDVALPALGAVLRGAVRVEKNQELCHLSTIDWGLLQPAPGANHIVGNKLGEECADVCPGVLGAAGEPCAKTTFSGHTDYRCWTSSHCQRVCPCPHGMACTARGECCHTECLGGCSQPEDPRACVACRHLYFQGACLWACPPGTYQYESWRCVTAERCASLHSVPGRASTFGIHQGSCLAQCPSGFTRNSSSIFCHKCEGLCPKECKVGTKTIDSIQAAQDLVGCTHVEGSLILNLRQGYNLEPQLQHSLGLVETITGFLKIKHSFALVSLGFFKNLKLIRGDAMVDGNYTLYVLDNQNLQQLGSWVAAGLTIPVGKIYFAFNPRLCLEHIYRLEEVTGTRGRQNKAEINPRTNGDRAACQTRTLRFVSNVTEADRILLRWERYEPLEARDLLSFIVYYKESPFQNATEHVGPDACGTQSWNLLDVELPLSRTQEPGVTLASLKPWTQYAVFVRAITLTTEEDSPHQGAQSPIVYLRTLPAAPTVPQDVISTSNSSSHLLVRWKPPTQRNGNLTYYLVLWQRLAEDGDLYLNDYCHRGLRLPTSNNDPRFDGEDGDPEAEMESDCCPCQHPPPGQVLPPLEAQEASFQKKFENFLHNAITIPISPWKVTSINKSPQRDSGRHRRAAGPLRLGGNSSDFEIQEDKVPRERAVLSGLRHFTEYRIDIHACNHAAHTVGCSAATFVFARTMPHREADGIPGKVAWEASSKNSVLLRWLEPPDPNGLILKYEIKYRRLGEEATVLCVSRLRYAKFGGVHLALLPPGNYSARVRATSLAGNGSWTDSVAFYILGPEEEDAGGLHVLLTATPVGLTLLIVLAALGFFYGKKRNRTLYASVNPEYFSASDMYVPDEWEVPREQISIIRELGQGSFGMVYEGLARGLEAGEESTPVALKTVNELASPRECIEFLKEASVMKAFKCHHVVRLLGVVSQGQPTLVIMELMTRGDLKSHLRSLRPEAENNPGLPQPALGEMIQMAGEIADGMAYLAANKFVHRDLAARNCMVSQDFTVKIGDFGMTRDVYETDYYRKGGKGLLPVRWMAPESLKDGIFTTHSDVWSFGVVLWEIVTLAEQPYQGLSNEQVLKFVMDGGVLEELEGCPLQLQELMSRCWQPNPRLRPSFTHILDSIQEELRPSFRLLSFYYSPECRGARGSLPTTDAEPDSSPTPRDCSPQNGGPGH

MAPKAPK5 = MAPKAPK5 (Homo sapiens, UniProt Q8IW41)
MYLK = MYLK (Homo sapiens, UniProt Q15746)
MYO3B = MYO3B (Homo sapiens, UniProt Q8WXR4)
NTRK2 = NTRK2 (Homo sapiens, UniProt Q16620)
PRKD2 = PRKD2 (Homo sapiens, UniProt Q9BZL6)
[1] = molecular target: T1, RPS6KA5(Kin.Dom.2-C-terminal) (Homo sapiens, UniProt O75582)
T1 construct: Kin.Dom.2 C-terminal

STK3 = STK3 (Homo sapiens, UniProt Q13188)
Sequence of STK3 (Q13188 whole entry): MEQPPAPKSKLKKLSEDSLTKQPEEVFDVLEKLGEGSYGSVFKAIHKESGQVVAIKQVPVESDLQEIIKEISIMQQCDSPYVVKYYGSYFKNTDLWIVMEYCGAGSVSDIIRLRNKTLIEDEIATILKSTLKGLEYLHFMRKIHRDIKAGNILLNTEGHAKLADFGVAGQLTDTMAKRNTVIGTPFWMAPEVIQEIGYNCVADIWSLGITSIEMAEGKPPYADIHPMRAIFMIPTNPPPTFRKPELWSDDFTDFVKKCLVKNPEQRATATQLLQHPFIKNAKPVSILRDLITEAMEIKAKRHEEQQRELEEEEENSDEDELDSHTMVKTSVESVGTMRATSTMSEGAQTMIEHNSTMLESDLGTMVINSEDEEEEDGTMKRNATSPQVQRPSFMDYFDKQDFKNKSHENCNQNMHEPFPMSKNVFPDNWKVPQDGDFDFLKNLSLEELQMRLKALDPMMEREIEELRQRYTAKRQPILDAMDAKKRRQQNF

TLK2 = TLK2 (Homo sapiens, UniProt Q86UE8)
ULK2 = ULK2 (Homo sapiens, UniProt Q8IYT8)
WEE2 = WEE2 (Homo sapiens, UniProt P0C1S8)
Sequence of WEE2 (P0C1S8 whole entry): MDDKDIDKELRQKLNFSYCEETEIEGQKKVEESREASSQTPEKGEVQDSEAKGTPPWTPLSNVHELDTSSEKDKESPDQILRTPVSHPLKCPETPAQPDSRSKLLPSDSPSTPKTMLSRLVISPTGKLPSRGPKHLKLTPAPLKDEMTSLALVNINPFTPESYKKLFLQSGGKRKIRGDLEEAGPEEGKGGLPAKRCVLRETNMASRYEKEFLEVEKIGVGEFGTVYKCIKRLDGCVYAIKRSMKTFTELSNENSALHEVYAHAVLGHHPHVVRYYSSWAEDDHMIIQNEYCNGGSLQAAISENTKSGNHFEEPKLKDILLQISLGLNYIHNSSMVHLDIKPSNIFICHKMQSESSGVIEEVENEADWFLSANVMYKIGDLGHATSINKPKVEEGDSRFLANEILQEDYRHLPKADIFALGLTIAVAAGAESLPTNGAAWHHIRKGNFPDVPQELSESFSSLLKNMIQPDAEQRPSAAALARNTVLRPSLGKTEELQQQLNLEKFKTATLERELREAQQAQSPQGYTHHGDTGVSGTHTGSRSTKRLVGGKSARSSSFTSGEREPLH

WNK2 = WNK2 (Homo sapiens, UniProt Q9Y3S1)

Sequence of AURKB (Q96GD4 whole entry): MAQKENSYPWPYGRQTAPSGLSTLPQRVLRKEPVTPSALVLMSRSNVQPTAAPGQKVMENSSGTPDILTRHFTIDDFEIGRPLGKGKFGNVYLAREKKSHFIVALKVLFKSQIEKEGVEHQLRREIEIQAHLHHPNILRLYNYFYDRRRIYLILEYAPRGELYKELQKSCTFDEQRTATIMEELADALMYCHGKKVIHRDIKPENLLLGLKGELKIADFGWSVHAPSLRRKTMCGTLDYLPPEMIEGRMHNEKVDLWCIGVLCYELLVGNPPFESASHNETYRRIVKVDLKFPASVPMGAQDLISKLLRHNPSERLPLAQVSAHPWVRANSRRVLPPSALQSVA

For Oc1ccc(C2=Cc3ccc(O)cc3OC2)cc1 [compound 1, idronoxil], the remaining binding at 10 µM (AAK1) was 61%, the remaining binding at 10 µM (AURKB) was 12% and the remaining binding at 10 µM (BMPR2) was 99%. It also gave a remaining binding at 10 µM (CAMK1) of 96%, a remaining binding at 10 µM (CHUK) of 81% and a remaining binding at 10 µM (CLK1) of 53%. It also gave a remaining binding at 10 µM (ERN1) of 66%, a remaining binding at 10 µM (FER) of 78% and a remaining binding at 10 µM (INSRR) of 94%. For the same compound, the remaining binding at 10 µM (MAPKAPK5) was 75%, the remaining binding at 10 µM (MYLK) was 52% and the remaining binding at 10 µM (MYO3B) was 100%. For the same compound, the remaining binding at 10 µM (NTRK2) was 62%, the remaining binding at 10 µM (PRKD2) was 94% and the remaining binding at 10 µM [1] was 100%. For the same compound, the remaining binding at 10 µM (STK3) was 93%, the remaining binding at 10 µM (TLK2) was 86% and the remaining binding at 10 µM (ULK2) was 100%. For the same compound, the remaining binding at 10 µM (WEE2) was 95% and the remaining binding at 10 µM (WNK2) was 51%.
